Patent US10674725B1, “Herbicidal composition and method for controlling weeds” (SUMITOMO CHEMICAL COMPANY, LIMITED, priority 2019, dated 2020)

Tests used:
corn plant = settings: corn at 2.5-leaf stage, spot-on 2nd leaf; dicamba-biproamine 4,000,000 ng/plant (acid equivalent), PPO inhibitor 2 ng/plant where added; 6 days after treatment
Method: An aqueous dilution of trifludimoxazin was prepared by mixing one part of a trifludimoxazin formulation (obtained by mixing a predetermined amount of trifludimoxazin with acetone containing 2% of Tween 20) with 4 parts of water, so as to have a concentration of 0.1 ppm of trifludimoxazin.
6 days after the spot-on treatments, an angle of inclination of the main tiller of the corn plant from the vertical line was measured as a quantitative measure of dicamba corn injury of leaning tiller.

soybean plant = settings: soybean at 2 trifoliate leaf stage, spot-on 2nd trifoliate leaf; dicamba-biproamine 40,000 ng/plant (acid equivalent), PPO inhibitor 20 ng/plant where added; 6 days after treatment; visually estimated

Angle of inclination of the main tiller from the vertical line (corn plant): 90 degrees
Leaf area (% of non-treated) (soybean plant): 40%
SMILES: CN(CCCN)CCCN.COc1c(Cl)ccc(Cl)c1C(=O)O [Dicamba-biproamine, dicamba-biproamine]
